Calls of active or inactive are those of the source. No rule for the calls is given here.
Test system: rodent carcinogenicity bioassays, tumor incidence
Assay: CCRIS carcinogenicity studies
Procedure, shortened: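 Archive of carcinogenicity, mutagenicity, tumor promotion and tumor inhibition results drawn from journals, NCI reports and other sources, expert-reviewed; covers 1985-2011 and is no longer updated.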

CCN(C)N=O was tested, and the carcinogen call (Species: HAMSTER, Strain/Sex: SYRIAN/MALE, Route: GAVAGE, Dose: 0, 1.8 MG/KG 1/WK FOR 23-30 WK (TOTAL DOSE: 0; 0.53 MMOL) (STUDY DURATION: LIFETIME), Dose: 0, 1.8 MG/KG 1/WK FOR 23-30 WK (TOTAL DOSE: 0; 0.53 MMOL) (STUDY DURATION: LIFETIME), Tumor Site: Type of Lesion: LIVER: HEPATOCELLULAR CARCINOMA, HEPATOCELLULAR ADENOMA, CHOLANGIOCARCINOMA, CHOLANGIOMA, HEMANGIOSARCOMA, NASAL MUCOSA:) was “active; positive”, the carcinogen call (Species: RAT, Strain/Sex: F344/FEMALE, Route: GAVAGE, Dose: 0, 4.6 MG/WK FOR A TOTAL DOSE OF 1.4 MMOL (STUDY DURATION: 40 WK), Tumor Site: Type of Lesion: LIVER: TUMOR, LUNG: TUMOR) was “active; positive” and the carcinogen call (Species: RAT, Strain/Sex: F344/FEMALE, Route: INTRAVESICULAR, Dose: 0, 2.3 MG IN 0.2 ML ETHANOL: DEIONIZED WATER (1:3) 2/WK FOR 30 WK (TOTAL DOSE 1.6 MMOL) (STUDY DURATION: LIFESPAN), Tumor Site: Type of Lesion: LIVER: HEMANGIOSARCOMA, LUNG: TUMOR, KIDNEY: TUMOR, Tumor Site: Type of Lesion: LIVER: HEMANGIOSARCOMA, LUNG: TUMOR, KIDNEY: TUMOR) was “active; positive”. The carcinogen call (Species: RAT, Strain/Sex: F344/MALE, Route: GAVAGE, Dose: 0, 4.6 MG/WK FOR A TOTAL DOSE OF 1.6 MMOL (STUDY DURATION: 60 WK), Tumor Site: Type of Lesion: LIVER: TUMOR, LUNG: TUMOR, NASAL MUCOSA: TUMOR, Tumor Site: Type of Lesion: LIVER: TUMOR, LUNG: TUMOR, NASAL MUCOSA: TUMOR) was “active; positive”.

In the case of C=CCc1ccc2c(c1)OCO2, the carcinogen call (Species: MOUSE, Strain/Sex: B6AKF1/MALE,FEMALE, Route: GAVAGE, ORAL, Dose: 464 MG/KG FROM D 7-28 OF LIFE THEN 1112 MG/KG IN DIET, Tumor Site: Type of Lesion: LIVER: HEPATOCELLULAR TUMOR) was “active; positive”, the carcinogen call (Species: MOUSE, Strain/Sex: B6C3F1/MALE,FEMALE, Route: GAVAGE, ORAL, Dose: 464 MG/KG FROM D 7-28 OF LIFE THEN 1112 MG/KG IN DIET, Tumor Site: Type of Lesion: LIVER: HEPATOCELLULAR TUMOR) was “active; positive” and the carcinogen call (Species: MOUSE, Strain/Sex: BALB/MALE, Route: ORAL, Dose: 0, 4000 PPM IN DIET FOR 52 WK (STUDY DURATION: 75 WK), Tumor Site: Type of Lesion: LIVER: HEPATOCELLULAR CARCINOMA, HEPATOCELLULAR ADENOMA) was “active; positive”. For the same compound, the carcinogen call (Species: MOUSE, Strain/Sex: CD-1/MALE, Route: ORAL, Dose: 4000, 5000 MG/KG IN DIET FOR 13 MO, Tumor Site: Type of Lesion: LIVER: HEPATOCELLULAR CARCINOMA) was “active; positive”, the carcinogen call (Species: MOUSE, Strain/Sex: CD-1/MALE, Route: SUBCUTANEOUS, Dose: 0.66, 6.6 MG (TOTAL DOSES) IN TRICAPRYLIN IN 3 WK, Tumor Site: Type of Lesion: LIVER) was “active; positive” and the carcinogen call (Species: MOUSE, Strain/Sex: SWISS/FEMALE, Route: SUBCUTANEOUS, Dose: 0.66, 6.6 MG (TOTAL DOSES) IN TRICAPRYLIN IN 3 WK, Tumor Site: Type of Lesion: LUNG: ADENOMA, ADENOCARCINOMA) was “active; positive”. For the same compound, the carcinogen call (Species: MOUSE, Strain/Sex: SWISS/MALE, Route: SUBCUTANEOUS, Dose: 0.66, 6.6 MG (TOTAL DOSES) IN TRICAPRYLIN IN 3 WK, Tumor Site: Type of Lesion: LIVER: HEPATOMA) was “active; positive” and the carcinogen call (Species: RAT, Strain/Sex: OSBORNE-MENDEL/MALE,FEMALE, Route: ORAL, Dose: 100, 500, 1000, 5000 MG/KG IN DIET FOR 2 YR, Dose: 100, 500, 1000, 5000 MG/KG IN DIET FOR 2 YR, Tumor Site: Type of Lesion: LIVER: HEPATOCELLULAR CARCINOMA, CHOLANGIOCARCINOMA) was “active; positive”.

In the case of Nc1ccc(NCCO)c([N+](=O)[O-])c1, the carcinogen call (Species: MOUSE, Strain/Sex: B6C3F1/MALE, Route: GAVAGE, Dose: 0, 125, 250 MG/KG IN CORN OIL 5 D/WK FOR 104 WK (STUDY DURATION: 105 WK), Dose: 0, 125, 250 MG/KG IN CORN OIL 5 D/WK FOR 104 WK (STUDY DURATION: 105 WK), Tumor Site: Type of Lesion: LIVER: HEPATOCELLULAR ADENOMA OR CARCINOMA) was “equivocal”, the carcinogen call (Species: RAT, Strain/Sex: F344/FEMALE, Route: GAVAGE, Dose: 0, 250, 500 MG/KG IN CORN OIL 5 D/WK FOR 105 WK (STUDY DURATION: 105 WK), Dose: 0, 250, 500 MG/KG IN CORN OIL 5 D/WK FOR 105 WK (STUDY DURATION: 105 WK)) was “inactive; negative” and the carcinogen call (Species: RAT, Strain/Sex: F344/MALE, Route: GAVAGE, Dose: 0, 250, 500 MG/KG IN CORN OIL 5 D/WK FOR 105 WK (STUDY DURATION: 105 WK), Dose: 0, 250, 500 MG/KG IN CORN OIL 5 D/WK FOR 105 WK (STUDY DURATION: 105 WK)) was “inactive; negative”.

CCCCOCCO was tested, and the carcinogen call (Species: MOUSE, Strain/Sex: B6C3F1/FEMALE, Route: INHALATION, Dose: 0, 62.5, 125, 250 PPM 6 HR/D 5D/WK FOR 104 WK (STUDY DURATION: 104 WK), Dose: 0, 62.5, 125, 250 PPM 6 HR/D 5D/WK FOR 104 WK (STUDY DURATION: 104 WK), Tumor Site: Type of Lesion: FORESTOMACH: SQUAMOUS CELL PAPILLOMA OR CARCINOMA) was “active; positive”, the carcinogen call (Species: MOUSE, Strain/Sex: B6C3F1/MALE, Route: INHALATION, Dose: 0, 62.5, 125, 250 PPM 6 HR/D 5D/WK FOR 104 WK (STUDY DURATION: 104 WK), Dose: 0, 62.5, 125, 250 PPM 6 HR/D 5D/WK FOR 104 WK (STUDY DURATION: 104 WK), Tumor Site: Type of Lesion: LIVER: HEMANGIOSARCOMA, HEPATOCELLULAR CARCINOMA) was “active; positive” and the carcinogen call (Species: RAT, Strain/Sex: F344/FEMALE, Route: INHALATION, Dose: 0, 31.2, 62.5, 125 PPM 6 HR/D 5D/WK FOR 104 WK (STUDY DURATION: 104 WK), Dose: 0, 31.2, 62.5, 125 PPM 6 HR/D 5D/WK FOR 104 WK (STUDY DURATION: 104 WK), Tumor Site: Type of Lesion: ADRENAL MEDULLA: BENIGN OR MALIGNANT PHEOCHROMOCYTOMA) was “equivocal”. For the same compound, the carcinogen call (Species: RAT, Strain/Sex: F344/MALE, Route: INHALATION, Dose: 0, 31.2, 62.5, 125 PPM 6 HR/D 5D/WK FOR 104 WK (STUDY DURATION: 104 WK), Dose: 0, 31.2, 62.5, 125 PPM 6 HR/D 5D/WK FOR 104 WK (STUDY DURATION: 104 WK)) was “inactive; negative”.

C=Cc1ccncc1 was tested, and the carcinogen call (Species: MOUSE, Strain/Sex: STRAIN-A/FEMALE, Route: INTRAPERITONEAL, Dose: 0, 10 UMOL IN 0.1 ML OLIVE OIL 3/WK FOR 20 DOSES (TOTAL DOSE: 200 UMOL) (STUDY DURATION: 27 WK)) was “inactive; negative”.

In the case of O.O=S(=O)([O-])[O-].[Mn+2], the carcinogen call (Species: MOUSE, Strain/Sex: B6C3F1/FEMALE, Route: ORAL, Dose: 0, 1500, 5000, 15000 PPM IN DIET (0; 60; 200; 615 MG/KG/D) FOR 105 WK (STUDY DURATION: 105 WK), Dose: 0, 1500, 5000, 15000 PPM IN DIET (0; 60; 200; 615 MG/KG/D) FOR 105 WK (STUDY DURATION: 105 WK), Tumor Site: Type of Lesion: THYROID GLAND (FOLLICULAR CELL): ADENOMA) was “equivocal”, the carcinogen call (Species: MOUSE, Strain/Sex: B6C3F1/MALE, Route: ORAL, Dose: 0, 1500, 5000, 15000 PPM IN DIET (0; 60; 200; 615 MG/KG/D) FOR 105 WK (STUDY DURATION: 105 WK), Dose: 0, 1500, 5000, 15000 PPM IN DIET (0; 60; 200; 615 MG/KG/D) FOR 105 WK (STUDY DURATION: 105 WK), Tumor Site: Type of Lesion: THYROID GLAND (FOLLICULAR CELL): ADENOMA) was “equivocal” and the carcinogen call (Species: RAT, Strain/Sex: F344/FEMALE, Route: ORAL, Dose: 0, 1500, 5000, 15000 PPM IN DIET (0; 70; 230; 715 MG/KG/D) FOR 2 YR (STUDY DURATION: 2 YR), Dose: 0, 1500, 5000, 15000 PPM IN DIET (0; 70; 230; 715 MG/KG/D) FOR 2 YR (STUDY DURATION: 2 YR)) was “inactive; negative”. For the same compound, the carcinogen call (Species: RAT, Strain/Sex: F344/MALE, Route: ORAL, Dose: 0, 1500, 5000, 15000 PPM IN DIET (0; 60; 200; 615 MG/KG/D) FOR 2 YR (STUDY DURATION: 2 YR), Dose: 0, 1500, 5000, 15000 PPM IN DIET (0; 60; 200; 615 MG/KG/D) FOR 2 YR (STUDY DURATION: 2 YR)) was “inactive; negative”.

With O=S(=O)(O)c1c(N=Nc2c(O)ccc3ccccc23)ccc2ccccc12 the carcinogen call (Species: MOUSE, Strain/Sex: ICR/FEMALE, Route: DERMAL, Dose: 0, 1 MG IN 0.1 ML DISTILLED WATER 2/WK FOR A MEAN TOTAL DOSE OF 128.1 MG (STUDY DURATION: 18 MO)) was “inactive; negative” and the carcinogen call (Species: MOUSE, Strain/Sex: ICR/MALE, Route: DERMAL, Dose: 0, 1 MG IN 0.1 ML DISTILLED WATER 2/WK FOR A MEAN TOTAL DOSE OF 128.1 MG (STUDY DURATION: 18 MO)) was “inactive; negative”.

For [Ni]=[Se], the carcinogen call (Species: RAT, Strain/Sex: F344/MALE, Route: INTRAMUSCULAR, Tumor Site: Type of Lesion: INJECTION SITE: SARCOMA) was “active; positive”.
